Here are results for six molecules from US12187746B2, “C26-linked rapamycin analogs as mTOR inhibitors” (Revolution Medicines, Inc., priority 2018, dated 2025).

In one test the test system is P-4E-BP1 (T37/46). Put plainly: Cell based AlphaLISA assay, inhibition of P-4E-BP1 (T37/46) in MDA-MB-468 cells. To be noted: Homo sapiens, 4 h, 0.017-1,000 nM, two to four hours at 37° C., AlphaLisa SureFire Ultra, read-out: pIC50 for Inhibition of mTORC1 and mTORC2 Substrate Phosphorylation, p-4E-BP1-(T37/46) (converted). In short, it runs like this: (§1)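 mTORC1 and mTORC2 activity in cells tracked through AlphaLISA SureFire Ultra detection of the phosphoproteins after incubation and cell lysis; Alpha signal read in duplicate. IC50 from normalized concentration–response regression with control-based normalization.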

The test system of another test is P-P70S6K (T389). Put plainly: Cell based AlphaLISA assay, inhibition of P-P70S6K (T389) in MDA-MB-468 cells. The conditions noted are these: Homo sapiens, 4 h, 0.017-1,000 nM, two to four hours at 37° C., AlphaLisa SureFire Ultra, read-out: pIC50 for Inhibition of mTORC1 and mTORC2 Substrate Phosphorylation, p-P70S6K-(T389) (converted). In short, it runs like this:
as §1

For a further test, the system named is P-Akt (S473). Put plainly: Cell based AlphaLISA assay, inhibition of P-Akt (S473) in MDA-MB-468 cells. To be noted: Homo sapiens, 4 h, 0.017-1,000 nM, two to four hours at 37° C., AlphaLisa SureFire Ultra, read-out: pIC50 for Inhibition of mTORC1 and mTORC2 Substrate Phosphorylation, p-AKT1/2/3-(S473) (converted). In short, it runs like this:
as §1

As to `CO[C@H]1C[C@@H]2CC[C@@H](C)[C@@](O)(O2)C(=O)C(=O)N2CCCC[C@H]2C(=O)O[C@H]([C@H](C)C[C@@H]2CC[C@@H](O)[C@H](OC)C2)C[C@@H](O)[C@H](C)/C=C(\C)[C@@H](O)[C@@H](OC)C(=NOC(C)(C)C(=O)NCCOCCOCCOCCOCCOCCOCCC(=O)N2CCc3cc(Cn4nc(-c5ccc6oc(N)nc6c5)c5c(N)ncnc54)ccc3C2)[C@H](C)C[C@H](C)/C=C/C=C/C=C/1C` [Example 48], the IC50 in the test on P-4E-BP1 (T37/46) was 3.16 to 31.6 nM; in the test on P-P70S6K (T389), 10 to 1000 nM; in the test on P-Akt (S473), > 1000 nM.

`CO[C@H]1C[C@@H]2CC[C@@H](C)[C@@](O)(O2)C(=O)C(=O)N2CCCC[C@H]2C(=O)O[C@H]([C@H](C)C[C@@H]2CC[C@@H](O)[C@H](OC)C2)C[C@@H](O)[C@H](C)/C=C(\C)[C@@H](O)[C@@H](OC)C(=NOCC(=O)NCc2cnc(N3CCN(c4ncc(C(=O)NCCOCCC(=O)N5CCc6cc(Cn7nc(-c8ccc9oc(N)nc9c8)c8c(N)ncnc87)ccc6C5)cn4)[C@H](CN(C)C)C3)nc2)[C@H](C)C[C@H](C)/C=C/C=C/C=C/1C` [Example 49]: the figures for the IC50 with P-4E-BP1 (T37/46), in the test with P-P70S6K (T389) and in the test on P-Akt (S473) were 3.16 to 31.6 nM, 1 to 10 nM and > 1000 nM, respectively.

As for `CO[C@H]1C[C@@H]2CC[C@@H](C)[C@@](O)(O2)C(=O)C(=O)N2CCCC[C@H]2C(=O)O[C@H]([C@H](C)C[C@@H]2CC[C@@H](O)[C@H](OC)C2)C[C@@H](O)[C@H](C)/C=C(\C)[C@@H](O)[C@@H](OC)C(=NOCC(=O)NCc2cnc(N3CCN(c4ncc(C(=O)NCCOCCC(=O)N5CCc6cc(Cn7nc(-c8ccc9oc(N)nc9c8)c8c(N)ncnc87)ccc6C5)c(N)n4)CC3)nc2)[C@H](C)C[C@H](C)/C=C/C=C/C=C/1C` [Example 50], the IC50 is > 1000 nM in the test on P-4E-BP1 (T37/46), 10 to 1000 nM in the test on P-P70S6K (T389) and > 1000 nM in the test with P-Akt (S473).

`CO[C@H]1C[C@@H]2CC[C@@H](C)[C@@](O)(O2)C(=O)C(=O)N2CCCC[C@H]2C(=O)O[C@H]([C@H](C)C[C@@H]2CC[C@@H](O)[C@H](OC)C2)C[C@@H](O)[C@H](C)/C=C(\C)[C@@H](O)[C@@H](OC)C(=NOCC(=O)NCc2cnc(N3CCN(c4ncc(C(=O)NCCOCCC(=O)NCCCCn5nc(-c6ccc7oc(N)nc7c6)c6c(N)ncnc65)c(N)n4)CC3)nc2)[C@H](C)C[C@H](C)/C=C/C=C/C=C/1C` [Example 51]: the values for the IC50 in the test on P-4E-BP1 (T37/46), in the test on P-P70S6K (T389) and in the test with P-Akt (S473) were > 1000 nM, 10 to 1000 nM and > 1000 nM, respectively.

With `CO[C@H]1C[C@@H]2CC[C@@H](C)[C@@](O)(O2)C(=O)C(=O)N2CCCC[C@H]2C(=O)O[C@H]([C@H](C)C[C@@H]2CC[C@@H](O)[C@H](OC)C2)C[C@@H](O)[C@H](C)/C=C(\C)[C@@H](O)[C@@H](OC)C(=NOCC(=O)NCc2cnc(N3CCC(N4CCC(C(=O)NCCOCCC(=O)N5CCc6cc(Cn7nc(-c8ccc9oc(N)nc9c8)c8c(N)ncnc87)ccc6C5)CC4)CC3)nc2)[C@H](C)C[C@H](C)/C=C/C=C/C=C/1C` [Example 52], the IC50 in the test on P-4E-BP1 (T37/46) is 3.16 to 31.6 nM; with P-P70S6K (T389), 1 to 10 nM; in the test with P-Akt (S473) it was > 1000 nM.

On to `CO[C@H]1C[C@@H]2CC[C@@H](C)[C@@](O)(O2)C(=O)C(=O)N2CCCC[C@H]2C(=O)O[C@H]([C@H](C)C[C@@H]2CC[C@@H](O)[C@H](OC)C2)C[C@@H](O)[C@H](C)/C=C(\C)[C@@H](O)[C@@H](OC)C(=NOCC(=O)NCc2cnc(N3CCN(C(=O)CCOCCN4CCN(c5ncc(C(=O)N6CCc7cc(Cn8nc(-c9ccc%10oc(N)nc%10c9)c9c(N)ncnc98)ccc7C6)cn5)CC4)[C@@H](C(=O)O)C3)nc2)[C@H](C)C[C@H](C)/C=C/C=C/C=C/1C` [Example 55], for which the IC50 is 3.16 to 31.6 nM in the test on P-4E-BP1 (T37/46), < 1 nM in the test with P-P70S6K (T389) and > 1000 nM in the test on P-Akt (S473).
